Reference: publication PMC12040169 (PLOS Biology, 2025)

Assay: in vitro
Details: human, hela cells, % viability

Row | SMILES | viability at 28.5 h, 10 µM
1 | CCC1CCc2c(sc(NC(=O)c3cc(-c4ccc(C)cc4C)nc4ccccc34)c2C(=O)OC)C1 (stereo not shown) [CBK262629] | 89.2%
2 | COc1ccc([C@@]23CC[C@@H](NC(=O)Nc4cc(F)c(C#N)cc4F)C[C@@H]2N(C)CC3)cc1OC [CBK073979T] | 98.2%
3 | COc1ccc(-c2cc3cccnc3n2CC(=O)NC(C)(C)C)cc1 [CBK285381] | 115%
4 | O=C(Nc1ccn(C23CC4CC(CC(C4)C2)C3)n1)c1ccco1 [CBK288023] | 106%
5 | O=C(Cn1cccc2cc(C3CCCNC3)nc1-2)NC1CCCC1 (stereo not shown) [CBK285015] | 95.5%
6 | COc1ccccc1-c1cnc(N)c(N2CCN(CCO)CC2)n1 [CBK063403] | 96.1%
7 | Cc1ncc(C(=O)NC2(c3cccc(F)c3)CCCC2)c(C)n1 [CBK283273] | 89.4%
8 | CSc1ncc(Cl)c(C(=O)Nc2nc(-c3ccc(S(=O)(=O)N4CCOCC4)cc3)cs2)n1 [CBK269064] | 102%
9 | CCS(=O)(=O)c1ccc(C(=O)Nc2nc3c(F)cc(F)cc3s2)cc1 [CBK287727] | 106%
10 | CCOC(=O)c1sc(NS(=O)(=O)c2ccc(Cl)c(Cl)c2)nc1C [CBK077228] | 92.5%
11 | OC(Cc1ccccc1)c1cc2n(n1)CCN(Cc1ccsc1)C2 (stereo not shown) [CBK307603] | 89.5%
12 | COC1CCC(C(=O)Nc2cnc(-c3cccc(OC(F)(F)F)c3)c(-c3cccnc3)n2)CC1 (stereo not shown) [CBK036754] | 97.4%
13 | O=C(c1ccccn1)N(CCc1ccccc1)c1nc2ccccc2s1 [CBK295151] | 97.5%
14 | CN(C)c1cccc(-c2ccc(Nc3cccc(NC(=O)c4ccncc4)c3)nc2)c1 [CBK037721] | 58.7%
15 | CS(=O)(=O)Nc1cc2ccccc2c(-c2ccsc2)n1 [CBK085748] | 89.7%
16 | Fc1cccc(-c2nccnc2NCc2cccnc2)c1 [CBK037633] | 88.3%
17 | FC(F)(F)c1cccc(-c2nccnc2NCc2cccs2)c1 [CBK037298] | 105%
18 | Cc1ccc2c(c1)C(=O)CC1(CCN(C(=O)C3CCCC3)CC1)O2 [CBK283718] | 85%
19 | COc1ccc(C(O)c2coc3ccc(O)c(CN(C)C)c23)cc1 (stereo not shown) [CBK263083] | 96.4%
20 | CCCc1n[nH]c(C2CN(CCn3cccn3)CCO2)n1 (stereo not shown) [CBK304842] | 106%
21 | Oc1nc(O)c2c3c(n(CCn4ccnc4)c2n1)CCCC3 [CBK024380B] | 109%
22 | CC(C)Oc1cccc(CNC(=O)c2ccc(C(C)(C)C)[nH]c2=O)c1 [CBK281415] | 92.2%

Row | SMILES | viability at 28.5 h, 10 µM
23 | CCN1CC(C(=O)N2CCCC(CN(C)C)C2)CC1=O (stereo not shown) [CBK282064] | 106%
24 | CC(C)Cc1ccc(-c2cc(Nc3ccc(O)cc3)ncn2)cc1 [CBK090754] | 93.6%
25 | CC(NS(=O)(=O)N(C)C)c1ccccc1 (stereo not shown) [CBK263819] | 96.6%
26 | N#CCCSc1ccn(C2CC(O)C(CO)O2)c(=O)n1 (stereo not shown) [CBK201261] | 97.9%
27 | COc1cncc(-c2cc(NCc3cc(OC)c(OC)c(OC)c3)ncn2)c1 [CBK091183] | 88.4%
28 | Cc1nc(-c2ccsc2)sc1C(=O)NC1CCCN(c2ncccn2)C1 (stereo not shown) [CBK305632] | 87.6%
29 | O=C(O)CCc1ccc(-c2ccc(Cl)cc2)n1Cc1ccco1 [CBK265984] | 92.4%
30 | Cc1csc(CN(C)C(=O)c2cc3sccc3[nH]2)n1 [CBK304334] | 92.7%
31 | O=C(COc1ccc(F)cc1)N1CCCC1c1cccc(Cc2ccc(F)cc2)n1 (stereo not shown) [CBK286235] | 99.3%
32 | Cc1ccnc2c1C(=O)C1(CC2)CCN(C(=O)Nc2ccc(F)cc2F)CC1 [CBK059553T] | 91.3%
33 | CC1CN(C(=O)OC(C)(C)C)CCN1 (stereo not shown) [CBK000069C] | 100%
34 | c1csc(C2CN(c3nccn4cnnc34)CCO2)c1 (stereo not shown) [CBK306380] | 85%
35 | O=S(=O)(c1ccc(-c2ccccc2)cc1)n1ccc2cc(N3CCN(Cc4ccccc4)CC3)ccc21 [CBK001388C] | 115%
36 | CNC(=O)c1ccc(-c2ccccc2OC)nc1N1CCOCC1 [CBK106210] | 87.4%
37 | CN(CC(=O)Nc1ccccc1N1CCNCC1)C(=O)c1ccccc1 [CBK028287T] | 99.3%
38 | Cc1noc(C)c1CC(=O)N1CCC2(C/C=C/C[C@H]3COCC[C@@H]3NC(=O)CNC2=O)CC1 [CBK292071] | 92.3%
39 | Cc1cc(=O)oc2cc(NC(=S)NNC(=O)c3ccc(Cl)s3)ccc12 [CBK266828] | 92.3%
40 | O=C(NCc1ccccc1)c1ccnc2ccccc12 [CBK200191] | 83.7%
41 | COc1cc(CN2CCCC3(CCN(C(=O)c4cc(F)c(F)cc4F)C3)C2)cc(OC)c1OC (stereo not shown) [CBK131988] | 101%
42 | CCS(=O)(=O)c1ccc2oc([C@H]3CCN(C(=O)C4CCCCC4)C3)nc2c1 [CBK289381] | 104%
43 | CN(C)C(=O)[C@H]1CN2CCC1C[C@@H]2Cn1cc(CCO)nn1 (stereo partly shown) [CBK289089] | 89.9%
44 | CC[C@H]1CN(C(=O)c2ccnc(Cl)c2)CC[C@H]1CC(=O)NCc1ccc2c(c1)OCO2 [CBK289137] | 110%

Row | SMILES | viability at 28.5 h, 10 µM
45 | CS(=O)(=O)Nc1ccc(-c2ccsc2)c2ccccc12 [CBK083742] | 98.7%
46 | COc1ccc(OC)c(C(C)NC(=O)C2CCN(CCc3cccs3)CC2)c1 (stereo not shown) [CBK148766] | 98.8%
47 | CC(O)CNC(=O)C1(c2ccccc2)CCCC1 (stereo not shown) [CBK149542] | 96%
48 | N#Cc1cc2c(=O)n(-c3ccccn3)ccc2[nH]c1=O [CBK288119] | 94.5%
49 | Clc1ccc(CN2CCC(Oc3cncc(OCCN4CCOCC4)n3)C2)cc1 (stereo not shown) [CBK084480] | 90.9%
50 | O=C(NC(c1ccc(Cl)cc1)c1ccsc1)C1CCN(CCc2ccc(F)cc2)CC1 (stereo not shown) [CBK147976] | 88.4%
51 | CC(=O)Nc1ccc(S(=O)(=O)NCCSc2ccccn2)cc1 [CBK263576] | 90.1%
52 | CC(=O)Nc1cccc(-c2cnc3[nH]c(=O)n([C@@H](C)c4ccccc4)c3n2)c1 [CBK064159] | 98.2%
53 | COc1cc(C(=O)N2CCC3(CC2)CC(=O)c2ccc(-c4ccccc4)cc2O3)cc(OC)c1C [CBK169037] | 89.9%
54 | Cc1cccc(N(CC(=O)Nc2cccnc2)S(=O)(=O)c2ccc(Cl)cc2)c1 [CBK268676] | 85.3%
55 | CC(C)(C)c1cn2c3ccccc3nc2n1CCN1CCOCC1 [CBK278252C] | 103%
56 | Cc1ncsc1C(=O)N1CCCC(c2cc3cnccc3[nH]2)C1 (stereo not shown) [CBK283461] | 94%
57 | Cn1cc(CN2CCC(C(=O)NC(c3ccc4c(c3)OCO4)c3ccccn3)CC2)c2ccccc21 (stereo not shown) [CBK148183] | 94%
58 | C[C@H](c1ccccc1)n1c(=O)[nH]c2ncc(-c3ccc(N(C)C)cc3)nc21 [CBK064367] | 102%
59 | CC(NC(=O)C1CCN(Cc2ncc[nH]2)CC1)c1ccc(F)cc1 (stereo not shown) [CBK148037] | 97%
60 | CCCc1c(C(=O)NCC(C)(C)CN(C)C)cnn1-c1cc(Cl)cc(Cl)c1 [CBK107381] | 94.3%
61 | O=C(O)COc1ccc(N2C(=O)c3ccc(Oc4cccc([N+](=O)[O-])c4)cc3C2=O)cc1 [CBK264259] | 107%
62 | COc1cccc([C@H]2CN(C(=O)c3ccccc3)[C@@H]3CCN(Cc4ccccc4C)C[C@H]23)c1 [CBK285610] | 98.6%
63 | c1ccc(CCc2nn3c(Cn4cnc5ccccc54)nnc3s2)cc1 [CBK268332] | 84.2%
64 | COc1ccc(-c2ccnc3[nH]c(=O)ccc23)cc1C [CBK073726] | 110%
65 | O=C(c1nccs1)C1CCN(C(=O)C2CCCCC2)CC1 [CBK284175] | 107%
66 | COCCNC(=O)c1ccc(-c2ccccc2CO)nc1N1CCOCC1 [CBK076559] | 97.6%

Row | SMILES | viability at 28.5 h, 10 µM
67 | CN(C)CCN(Cc1ccncc1)Cc1cc(F)ccc1F [CBK283095] | 88%
68 | NC(=O)c1ccccc1NC(=O)Cc1ccc2c(c1)CCCC2 [CBK298334] | 88.9%
69 | O=C(Nc1ccccc1)OC1CCCCC1 [CBK015569] | 116%
70 | COc1ccc(C(C)c2cc3c(cc2OCC(=O)O)OCO3)cc1 (stereo not shown) [CBK200108] | 87.4%
71 | O=C(NCc1csc(-c2ccccc2)n1)C(F)(F)F [CBK092340] | 102%
72 | CCNC(=O)Nc1ncc(-c2ccccc2)c2cccnc12 [CBK070624] | 95.3%
73 | O=c1n(-c2ccccc2)c(=O)n(Cc2ccccn2)n1Cc1ccccn1 [CBK266630] | 98.7%
74 | O=C(CSc1nc(-c2cccs2)cc(C(F)(F)F)n1)N1CCSCC1 [CBK307371] | 107%
75 | CC(C)(CO)Cn1c(=O)[nH]c2ncc(-c3cccnc3)nc21 [CBK064697] | 107%
76 | CCc1nn(CC(=O)N2CCCC2)c(=O)c2cc3oc(C)cc3n12 [CBK283584] | 110%
77 | Nc1ccc(Cc2ccc(N)c(C(=O)O)c2)cc1C(=O)O [CBK261153] | 92.3%
78 | O=C(C1CC1)N1CCC(n2nc(-c3cccs3)ccc2=O)CC1 [CBK284213] | 94.7%
79 | COCC(=O)N1CCc2sccc2C1c1ccc(NC(=O)c2ccccc2F)cc1 (stereo not shown) [CBK286469] | 87.5%
80 | COCCSc1nnc(NS(=O)(=O)Cc2ccccc2)s1 [CBK267535] | 97.6%
81 | Cc1cccc(C(=O)NCCc2nc3ccccc3[nH]2)c1 [CBK263493] | 100%
82 | COC(=O)c1csc2c1N[C@H](C1CC3C=CC1C3)[C@@H]1CCO[C@H]21 (stereo partly shown) [CBK303251] | 94.9%
83 | CC(C)C(=O)Nc1c(-c2ccccc2)cnc2ncccc12 [CBK083713] | 94.8%
84 | Clc1ccc(CN2CCN(c3nccnc3OCC3COc4ccccc4O3)CC2)cc1 (stereo not shown) [CBK082786T] | 101%
85 | Cc1nc2ccccc2nc1SCc1nc(N)nc(N2CCCCC2)n1 [CBK270218] | 92.2%
86 | Cc1ncsc1CCOc1cc(N2CCCC2)ncn1 [CBK115895] | 85.5%
87 | COc1ccc([C@@]23CCC(NC(=O)Nc4ccc5c(c4)Cc4ccccc4-5)C[C@@H]2N(C)CC3)cc1OC (stereo partly shown) [CBK047550T] | 85.9%

Same assay, conditions: human, hela cells, % viability, bulk resorufin, single well

Row | SMILES | viability at 28.5 h, 10 µM
88 | CCNC(=O)N1CCC2(CC1)OCc1cc(-c3ccc(Cl)cc3)ccc1O2 [CBK060737] | 90.1%
